Assay results from patent US20210321645A1, “STABILIZER FOR PYRROLOQUINOLINE QUINONE, COMPOSITION COMPRISING THE SAME, AND METHOD OF STABILIZATION” (Mitsubishi Gas Chemical Company, Inc., priority 2018, published 2021).

Assay: Accelerated storage test of beverages, BioPQQ recovery by HPLC
Assay type: physicochemical
Details: beverages stored at 60° C. (Table 5), in words
Procedure: Analysis conditions of pyrroloquinoline quinone disodium salt
HPLC Conditions: • Shimadzu LC-2010 • Column: YMC-Pack ODS-A • Detection wavelength: 259 nm • Mobile phase: 30 mM acetic acid-70 mM ammonium acetate • Column temperature: 40° C.
(Accelerated Storage Test)
The sample of Example 1 was stored under the conditions of 60° C. for 2 weeks, which are equivalent to those of room temperature for 2 years. When the stored sample was subjected to HPLC, 97% of BioPQQ was recovered.

stabilizing effect on BioPQQ: high stabilizing effect
Structure (SMILES): OC[C@@H](O)[C@@H](O)CO [Erythritol]
